Laboratory results from US20200222400A1, “METHODS FOR THE TREATMENT OF NEUROLOGICAL DISORDERS” (Yumanity Therapeutics, Inc., priority 2019, published 2020).

Tested on: SCD
Assay: Fatty acid saturation in guinea pig brain after oral SCD inhibitors (GC-FID of FAME)
Type: in vivo
Settings: oral 25 mg/kg twice daily 5 days, vs vehicle
Procedure: FIG. 19A-FIG. 19F are a series of graphs showing an evaluation of fatty acid saturation in guinea pig brain after oral administration of SCD inhibitors. Guinea pigs were dosed orally with SCD inhibitors twice daily (every 12 hours) for 5 days. Guinea pigs were dosed with vehicle, SCD5 Selective Inhibitor 1 (“SCD5-SI-1”), SCD5 Selective Inhibitor 2 (“SCD5-SI-2”), CAY10566 (“CAY”) or SCD1/SCD5 Inhibitor 1 (“SCD1/5-1”), all compounds at 25 mg/kg with a volume-matched vehicle control. Four hours after the last dose on day 5, guinea pigs were sacrificed, and brains were removed after whole-body saline perfusion. […] Samples were evaluated on a gas chromatograph with a flame ionization detector (GC-FID) to quantify a comprehensive panel of fatty acid species. Brain samples were evaluated for levels of 16 (FIG. 19A) and 18 (FIG. 19B) carbon-containing fatty acids (C16, C18 respectively), and the desaturation index (DI) was calculated by taking the ratio of desaturated to saturated fatty acid for each species. […] Brain samples were evaluated for the relative levels of the positional isomers of C16, including C16:1 n7 palmitoleic acid (FIG. 19C) or C16:1 n9 monounsaturated fatty acids (FIG. 19D). […] Data was analyzed by one-way ANOVA with Tukey's post-hoc test to account for multiple comparisons. ** p<0.01, *** p<0.005, **** p<0.0001. […]

In the case of `Cc1nnc(-c2ccc(N3CCC(Oc4cc(F)ccc4Cl)CC3)nn2)o1` [CAY10566], the “C16 desaturation index (DI), brain” value is reported as “decreased the C16 DI”.
